Test results as given in patent US11299503B2, “Compound, coating composition comprising the same, organic light emitting device using the same and method for manufacturing the same” (LG Chem, Ltd., priority 2018, dated 2022).

Assay: Solubility in toluene, precipitate check by tyndall effect
Assay type: physicochemical
Conditions: toluene 100 ml, left 30 minutes at room temperature (25° C.), dissolved amount measured
Method: In addition, Compound BD12, Compound BD24, Compound BD30, Compound BD38 and Compound C used in Example 1 to Example 4 and Comparative Example 1 were each introduced to a solvent (toluene 100 ml), and then left unattended for 30 minutes at room temperature (25° C.). After that, laser was passed through the solution to determine whether precipitates were formed through a […] effect, and the dissolved amount was measured.

SMILES | Solubility
c1ccc([Si](c2ccccc2)(c2ccccc2)c2cccc(-c3ccccc3N(c3cccc([Si](c4ccccc4)(c4ccccc4)c4ccccc4)c3)c3cc4c5ccccc5c(N(c5cccc([Si](c6ccccc6)(c6ccccc6)c6ccccc6)c5)c5ccccc5-c5cccc([Si](c6ccccc6)(c6ccccc6)c6ccccc6)c5)cc4c4ccccc34)c2)cc1 [BD12] | 10 wt %
c1ccc([Si](c2ccccc2)(c2ccccc2)c2cccc(-c3ccccc3N(c3ccc(-c4cc5c6ccccc6c(-c6ccc(N(c7cccc([Si](c8ccccc8)(c8ccccc8)c8ccccc8)c7)c7ccccc7-c7cccc([Si](c8ccccc8)(c8ccccc8)c8ccccc8)c7)cc6)cc5c5ccccc45)cc3)c3cccc([Si](c4ccccc4)(c4ccccc4)c4ccccc4)c3)c2)cc1 [BD24] | 10 wt %
CC(C)c1ccc([Si](c2ccc(C(C)C)cc2)(c2ccc(C(C)C)cc2)c2ccc(N(c3cccc(-c4cccc([Si](c5ccc(C(C)C)cc5)(c5ccc(C(C)C)cc5)c5ccc(C(C)C)cc5)c4)c3)c3cc4c5ccccc5c(N(c5ccc([Si](c6ccc(C(C)C)cc6)(c6ccc(C(C)C)cc6)c6ccc(C(C)C)cc6)cc5)c5cccc(-c6cccc([Si](c7ccc(C(C)C)cc7)(c7ccc(C(C)C)cc7)c7ccc(C(C)C)cc7)c6)c5)cc4c4ccccc34)cc2)cc1 [BD30] | 15 wt %
CC(C)c1ccc([Si](c2ccc(C(C)C)cc2)(c2ccc(C(C)C)cc2)c2ccc(N(c3ccc(-c4cc5c6ccccc6c(-c6ccc(N(c7ccc([Si](c8ccc(C(C)C)cc8)(c8ccc(C(C)C)cc8)c8ccc(C(C)C)cc8)cc7)c7cccc(-c8cccc([Si](c9ccc(C(C)C)cc9)(c9ccc(C(C)C)cc9)c9ccc(C(C)C)cc9)c8)c7)cc6)cc5c5ccccc45)cc3)c3cccc(-c4cccc([Si](c5ccc(C(C)C)cc5)(c5ccc(C(C)C)cc5)c5ccc(C(C)C)cc5)c4)c3)cc2)cc1 [BD38] | 15 wt %
c1ccc(-c2ccc(N(c3ccccc3)c3cc4c5ccccc5c(N(c5ccccc5)c5ccc(-c6ccccc6)cc5)cc4c4ccccc34)cc2)cc1 [Compound C, reference compound] | 0.1 wt %
